Assay results published in publication PMC8246325, “Toxicity of Jegosaponins A and B from Styrax japonica Siebold et al. Zuccarini in Prostate Cancer Cells and Zebrafish Embryos Resulting from Increased Membrane Permeability” (International Journal of Molecular Sciences, 2021).

What was measured:
[1] = test system: PC-3 cells; experiment: DRAQ7 membrane permeability assay in PC-3 cells; assay type: cell-based; details: Homo sapiens; for IC50: 1 h (Table 1); for EC50: DRAQ7 membrane-impermeable dye, read-out: EC50 of DRAQ7 nucleus staining (DRAQ7 positive cells)
Method: (§1) PC-3 cells were seeded (4 × 10^3 cells/well) in ibidi 8-well μ-Slide (Ibidi, Munich, Germany) in DMEM supplemented with 10% FBS and cultured for 24 h. Then, DRAQ7 (DRAQ7 DROP & GO; Biostatus, Shepshed, UK) and the tested compounds were added to the cells. After an appropriate time, the cells were imaged using a BZ-X710 fluorescence microscope (Keyence, Tokyo, Japan). For zebrafish embryos, 48 hpf embryos were treated with DRAQ7 and the tested compounds and imaged using a BZ-X710 fluorescent microscope.

[2] = test system: PC-3 prostate cancer cells; experiment: Cell viability assay (CellTiter-Glo) in PC-3 cells; assay type: cell-based, human; details: for Suppression of viability of PC-3 cells: 1 µM, 48 h (Figure S1); for CC50: Homo sapiens, PC-3 cells, 48 h treatment, read-out: PC-3 cell viability, lethal concentration 50 (LC50)
Method: (§2) Human prostate cancer PC-3, […], and LNCaP cells were obtained from Riken Bioresource Center (Tokyo, Japan) and cultured in Dulbecco’s modified Eagle medium-low glucose (DMEM; Sigma-Aldrich, St. Louis, MO, USA), supplemented with 10% fetal bovine serum (FBS; Biowest SAS, Nuaille, France) and 1% penicillin-streptomycin (Fujifilm Wako Pure Chemicals) at 37 °C in a humidified 5% CO2 atmosphere. For screening, the cells were seeded (3 × 10^3 cells/well) in a 96-well plate and cultured for 24 h in DMEM supplemented with 1% FBS. The tested compounds were then administered to the cells. Forty-eight hours after administration, cell viability was measured using the CellTiter-Glo luminescent cell viability assay (Promega, Madison WI, USA) according to the manufacturer’s protocol. Luminescence signals were measured using a Victor2 microplate reader (PerkinElmer, Boston, MA, USA). For the negative control (0 μM jegosaponin A and B), 0.1% dimethyl sulfoxide (vehicle) was used. Cell viability was calculated as the ratio of the negative controls. The assay was performed in triplicate.

[3] = test system: 48 hpf zebrafish; experiment: DRAQ7 membrane permeability assay in zebrafish; assay type: in vivo, zebrafish (Danio rerio); details: for Lethality to zebrafish embryos at high concentration: 60 min; for DRAQ7 signals in zebrafish (cell membrane permeability): 30 min of exposure, mainly tail regions
Method: as §1

[4] = test system: DU145; experiment: Cell viability assay (CellTiter-Glo) in DU145 cells; assay type: cell-based, human; details: 1 µM, 48 h (Figure S1)
Method: as §2

[5] = test system: LNCaP; experiment: Cell viability assay (CellTiter-Glo) in LNCaP cells; assay type: cell-based, human; details: 1 µM, 48 h (Figure S1)
Method: as §2

[6] = Zebrafish embryo acute toxicity test (ZFET); design: species or system zebrafish (Danio rerio); details: AB, in vivo, other: embryos exposed in 6-well plates; for LC50 at 120 h: embryos exposed from 5 hpf to 120 hpf; for LC50 at 24 h: embryos exposed from 5 hpf, 24 h after administration (to 24 hpf)
Method: Zebrafish AB strain (Zebrafish International Resource Center, Eugene, OR, USA) was maintained in our facility according to standard operational guidelines. All animal procedures were performed by the Ethics Committee of Mie University, according to the Japanese Animal Welfare Regulation ‘Act on Welfare and Management of Animals’ (Ministry of Environment of Japan), and complied with international guidelines.
ZFETs were performed as previously reported. In brief, blastula stage embryos (approximately 5 h post fertilisation (hpf)) were transferred into 6-well plates and exposed to jegosaponin A or B at 28 °C until 120 hpf. Each group contained nine fish in three triplicates. The number of surviving embryos was counted every 24 h.

[7] = test system: sheep red blood cells; experiment: Haemolysis assay; assay type: cell-based; details: Ovis aries, Erythrocyte; RBC, 1 h (Table 1); read-out: RBC Hemolysis HD50 (1 h)
Method: A haemolysis assay was performed as previously reported. Five millilitres of sheep defibrinated blood (Nippon Bio-Supp. Centre, Tokyo, Japan) was diluted in 45 mL of Dulbecco’s phosphate-buffered saline (DPBS) to obtain a total volume of 50 mL. The cell suspension was centrifuged at 500× g for 5 min, and the supernatant was discarded. This procedure was repeated three times, and DPBS was added to the precipitate, and the red blood cell (RBC) count was adjusted to ~5×10^8 cells/mL. The RBC suspension (500 µL) was placed into a 1.5 mL storage tube, and the reagent was administered and incubated for 30 min on ice. […] The cell suspension was then centrifuged at 500× g for 5 min. The haemoglobin concentration in the supernatant was measured by measuring the UV absorbance at 540 nm.

[8] = test system: caspase-3 and caspase-7; experiment: Caspase 3/7 assay (Caspase-Glo 3/7) in PC-3 cells; assay type: cell-based, human; details: for Caspase 3/7 activities in PC-3 cells: 3 or 6 h; for Induction of caspase-3 and caspase-7 activities: PC-3 cells, sub-IC50 concentrations
Method: PC-3 cells were seeded (3 × 10^3 cells/well) in a 96-well plate in DMEM containing 10% FBS for 24 h and treated with the test compounds. Caspase-Glo 3/7 assay (Promega) was performed according to the manufacturer’s instructions. Luminescence signals were measured using a Victor2 microplate reader (PerkinElmer).

C/C=C(\C)C(=O)O[C@H]1[C@H](OC(C)=O)[C@@]2(CO)C(CC1(C)C)C1=CCC3[C@@]4(C)CC[C@H](O[C@@H]5O[C@H](C(=O)O)[C@@H](O[C@@H]6O[C@H](CO)[C@H](O)[C@H](O)[C@H]6O[C@@H]6O[C@@H](C)[C@H](O)[C@@H](O)[C@H]6O)[C@H](O)[C@H]5O[C@@H]5O[C@H](CO)[C@@H](O)[C@H](O)[C@H]5O)C(C)(C)C4CC[C@@]3(C)[C@]1(C)C[C@H]2O (stereo partly drawn) [Jegosaponin A, jegosaponin A]
IC50 [1]: 3.4 µM
EC50 [1]: 3.4 ± 0.6 µM
Suppression of viability of PC-3 cells [2]: suppress viability
CC50 [2]: 0.7 µM
Lethality to zebrafish embryos at high concentration ([3]; 6 μM): killed all embryos
DRAQ7 signals in zebrafish (cell membrane permeability) [3]: apparently increased DRAQ7 signals
Suppression of viability of DU145 cells [4]: suppress viability
Suppression of viability of DU145 cells ([4]; listed as jegosaponin A): suppressed the viability
Suppression of viability of LNCaP cells [5]: suppress viability
Suppression of viability of LNCaP cells ([5]; listed as jegosaponin A): suppressed the viability
LC50 at 120 h [6]: 0.5 µM
LC50 at 24 h [6]: 0.7 µM
EC50 [7]: 2.1 µM
Caspase 3/7 activities in PC-3 cells ([8]; 1.5 µM): do not affect caspase 3/7 activities
Induction of caspase-3 and caspase-7 activities [8]: no apparent induction of their activities

C/C=C(\C)C(=O)O[C@H]1[C@H](O)[C@@]2(COC(C)=O)C(CC1(C)C)C1=CCC3[C@@]4(C)CC[C@H](O[C@@H]5O[C@H](C(=O)O)[C@@H](O[C@@H]6O[C@H](CO)[C@H](O)[C@H](O)[C@H]6O[C@@H]6O[C@@H](C)[C@H](O)[C@@H](O)[C@H]6O)[C@H](O)[C@H]5O[C@@H]5O[C@H](CO)[C@@H](O)[C@H](O)[C@H]5O)C(C)(C)C4CC[C@@]3(C)[C@]1(C)C[C@H]2O (stereo partly drawn) [Jegosaponin B, jegosaponin B]
IC50 [1]: 6 µM
EC50 [1]: 6 ± 1.2 µM
Suppression of viability of PC-3 cells [2]: suppress viability
CC50 [2]: 1.6 µM
Lethality to zebrafish embryos at high concentration ([3]; 12 μM): killed all embryos
DRAQ7 signals in zebrafish (cell membrane permeability) [3]: apparently increased DRAQ7 signals
Suppression of viability of DU145 cells ([4]; listed as B): suppress viability
Suppression of viability of DU145 cells ([4]; listed as jegosaponin B): suppressed the viability
Suppression of viability of LNCaP cells ([5]; listed as B): suppress viability
Suppression of viability of LNCaP cells ([5]; listed as jegosaponin B): suppressed the viability
LC50 at 120 h [6]: 1.3 µM
LC50 at 24 h [6]: 1.4 µM
EC50 [7]: 20.2 µM
Caspase 3/7 activities in PC-3 cells ([8]; 0.5 µM): do not affect caspase 3/7 activities
Induction of caspase-3 and caspase-7 activities [8]: no apparent induction of their activities
